In US12187742B2 (XRAD Therapeutics, Inc., priority 2018, dated 2025):
Where a name gives a salt, the structure may show the parent alone.

Experiments:
[1] = molecular target: DNA-PK (Homo sapiens (Human), UniProt P78527); test: DNA-PK Enzyme-Linked Immunosorbent Assay (phosphorylation of GST-p53 (1-101) peptide); type: biochemical; conditions: ELISA, 20 μM ATP
In short: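 Inhibition measured by 450 nm absorbance after HRP/TMB detection of phospho-Ser15 on immobilized GST-p53 (1-101). The kinase reaction used 0.1 μg/mL DNA-PK and 20 μM ATP, 1 h at 25 °C. Ten 3-fold compound dilutions, top final concentration 100 nM.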

[2] = molecular target: ATM (Homo sapiens (Human), UniProt Q13315); test: ATM in Cell Western Assay (pKAP1 in etoposide-treated MCF-7 cells); type: cell-based; conditions: pKAP1 in etoposide-treated MCF-7 cells
Chain of ATM (Q13315 whole entry): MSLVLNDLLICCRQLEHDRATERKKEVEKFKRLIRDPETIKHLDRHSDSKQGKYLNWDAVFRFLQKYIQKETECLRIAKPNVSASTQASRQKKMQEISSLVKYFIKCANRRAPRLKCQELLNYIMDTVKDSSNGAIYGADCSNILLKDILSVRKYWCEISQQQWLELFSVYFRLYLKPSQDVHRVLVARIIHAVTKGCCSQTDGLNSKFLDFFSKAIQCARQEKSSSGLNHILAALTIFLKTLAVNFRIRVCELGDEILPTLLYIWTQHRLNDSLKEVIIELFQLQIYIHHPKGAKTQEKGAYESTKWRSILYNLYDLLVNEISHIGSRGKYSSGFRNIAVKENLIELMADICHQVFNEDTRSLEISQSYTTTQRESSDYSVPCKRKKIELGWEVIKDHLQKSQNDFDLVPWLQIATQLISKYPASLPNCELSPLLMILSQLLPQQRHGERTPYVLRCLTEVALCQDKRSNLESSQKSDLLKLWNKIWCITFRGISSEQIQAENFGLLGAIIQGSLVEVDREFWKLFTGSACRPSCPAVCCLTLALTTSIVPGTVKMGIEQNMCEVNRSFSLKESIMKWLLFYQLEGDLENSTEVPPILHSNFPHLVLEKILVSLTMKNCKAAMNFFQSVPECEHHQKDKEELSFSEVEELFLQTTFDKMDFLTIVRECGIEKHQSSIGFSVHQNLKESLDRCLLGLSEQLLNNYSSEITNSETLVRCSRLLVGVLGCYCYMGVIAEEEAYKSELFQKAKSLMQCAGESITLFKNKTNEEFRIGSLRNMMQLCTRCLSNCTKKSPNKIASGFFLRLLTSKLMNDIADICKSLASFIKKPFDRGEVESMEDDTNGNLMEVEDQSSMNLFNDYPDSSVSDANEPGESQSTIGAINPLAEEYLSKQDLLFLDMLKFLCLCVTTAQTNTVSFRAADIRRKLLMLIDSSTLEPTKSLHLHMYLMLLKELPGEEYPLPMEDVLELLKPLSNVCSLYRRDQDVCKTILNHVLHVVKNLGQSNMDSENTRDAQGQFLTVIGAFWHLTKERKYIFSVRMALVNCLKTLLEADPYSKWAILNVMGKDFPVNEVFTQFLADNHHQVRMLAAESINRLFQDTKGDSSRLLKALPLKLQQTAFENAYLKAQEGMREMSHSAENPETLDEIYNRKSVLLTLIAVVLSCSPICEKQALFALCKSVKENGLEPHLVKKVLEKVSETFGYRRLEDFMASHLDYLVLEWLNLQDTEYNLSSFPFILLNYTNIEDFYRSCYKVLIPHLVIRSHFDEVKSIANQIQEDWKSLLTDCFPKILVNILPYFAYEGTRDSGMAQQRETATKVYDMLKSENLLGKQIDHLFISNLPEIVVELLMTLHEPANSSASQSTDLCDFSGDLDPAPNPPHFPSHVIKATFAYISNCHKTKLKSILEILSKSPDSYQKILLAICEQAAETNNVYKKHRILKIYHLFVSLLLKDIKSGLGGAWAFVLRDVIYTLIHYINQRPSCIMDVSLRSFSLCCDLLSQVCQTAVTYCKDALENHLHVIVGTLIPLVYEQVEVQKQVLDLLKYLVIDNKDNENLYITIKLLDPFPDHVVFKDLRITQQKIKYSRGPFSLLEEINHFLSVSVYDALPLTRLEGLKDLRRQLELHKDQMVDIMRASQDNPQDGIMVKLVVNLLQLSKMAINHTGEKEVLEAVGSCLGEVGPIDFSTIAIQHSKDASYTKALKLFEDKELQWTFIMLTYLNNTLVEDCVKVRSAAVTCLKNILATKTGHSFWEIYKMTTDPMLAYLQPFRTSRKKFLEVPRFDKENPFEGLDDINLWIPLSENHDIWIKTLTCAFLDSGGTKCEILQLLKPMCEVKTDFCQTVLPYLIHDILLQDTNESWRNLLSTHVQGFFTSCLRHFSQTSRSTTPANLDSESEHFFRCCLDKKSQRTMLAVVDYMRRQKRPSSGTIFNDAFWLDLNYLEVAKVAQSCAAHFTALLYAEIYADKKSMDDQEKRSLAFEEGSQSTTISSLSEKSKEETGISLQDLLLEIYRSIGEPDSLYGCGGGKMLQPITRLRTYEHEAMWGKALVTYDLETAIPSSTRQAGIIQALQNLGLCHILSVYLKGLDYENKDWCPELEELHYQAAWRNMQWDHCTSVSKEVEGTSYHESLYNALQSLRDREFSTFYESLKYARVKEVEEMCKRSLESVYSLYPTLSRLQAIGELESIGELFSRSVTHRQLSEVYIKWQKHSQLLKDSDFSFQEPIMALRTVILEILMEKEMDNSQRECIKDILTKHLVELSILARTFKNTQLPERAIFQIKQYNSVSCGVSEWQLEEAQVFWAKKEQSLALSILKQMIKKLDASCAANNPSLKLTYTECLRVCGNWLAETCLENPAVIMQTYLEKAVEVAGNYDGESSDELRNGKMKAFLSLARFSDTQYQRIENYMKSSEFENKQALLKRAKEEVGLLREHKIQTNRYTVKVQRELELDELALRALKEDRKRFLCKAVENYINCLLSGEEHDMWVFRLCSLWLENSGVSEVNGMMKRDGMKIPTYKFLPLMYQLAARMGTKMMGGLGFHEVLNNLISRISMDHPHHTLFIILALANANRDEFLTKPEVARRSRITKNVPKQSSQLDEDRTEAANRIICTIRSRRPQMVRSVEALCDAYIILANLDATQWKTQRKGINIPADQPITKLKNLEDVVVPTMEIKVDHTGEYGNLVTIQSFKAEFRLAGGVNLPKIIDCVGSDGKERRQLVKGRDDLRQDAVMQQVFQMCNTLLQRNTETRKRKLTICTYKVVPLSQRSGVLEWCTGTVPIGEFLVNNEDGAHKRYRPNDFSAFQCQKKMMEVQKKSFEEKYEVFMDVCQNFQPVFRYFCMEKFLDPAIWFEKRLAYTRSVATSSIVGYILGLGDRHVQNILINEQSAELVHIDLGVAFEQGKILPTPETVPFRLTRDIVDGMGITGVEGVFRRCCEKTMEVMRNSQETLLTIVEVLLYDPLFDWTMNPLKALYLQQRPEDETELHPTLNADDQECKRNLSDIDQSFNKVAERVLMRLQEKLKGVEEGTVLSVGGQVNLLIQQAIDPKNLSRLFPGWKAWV
In short: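 After paraformaldehyde fixation and Triton X-100 permeabilization, immunostained plates were read by infrared scanning (ODYSSEY CLx). Compound was given as 10 doses, 3-fold dilutions from a 1 μM final top concentration.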

| SMILES | IC50 [1] [nM] | IC50 [2] [nM] |
| --- | --- | --- |
| CC(C)NCCOc1ncc(-c2cc3c(cc2F)ncc2c3[C@]3(C[C@H](N(C)c4ccccc4)C3)C(=O)N2C)cc1NS(C)(=O)=O [Example 463, cis-N-(5-(7′-Fluoro-3′-methyl-3-(methyl(phenyl)amino)-2′-oxo-2′,3′-dihydrospiro[cyclobutane-1,1′-pyrrolo[2,3-c]quinolin]-8′-yl)-2-(2-(isopropylamino)ethoxy)pyridin-3-yl)methanesulfonamide] | < 0.5 | 1 to 100 |
| CN(C)CCCOc1ncc(-c2ccc3ncc4c(c3c2)C2(CN(C)C2)C(=O)N4C)cc1NS(C)(=O)=O [Example 478, N-(5-(1,3′-Dimethyl-2′-oxo-2′,3′-dihydrospiro[azetidine-3,1′-pyrrolo[2,3-c]quinolin]-8′-yl)-2-(3-(dimethylamino)propoxy)pyridin-3-yl)methanesulfonamide] | 1 to 100 | 1 to 100 |
| CCS(=O)(=O)Nc1cc(-c2cc3c4c(cnc3cc2F)N(C)C(=O)C42CN(C(C)C)C2)cnc1OCCNC(C)C [Example 483] | 0.5 to 1 | 1 to 100 |
| CC(C)NCCOc1ncc(-c2cc3c4c(cnc3cc2F)N(C)C(=O)C42CN(C(C)C)C2)cc1NS(=O)(=O)C1CC1 [Example 484, N-(5-(7′-Fluoro-1-isopropyl-3′-methyl-2′-oxo-2′,3′-dihydrospiro[azetidine-3,1′-pyrrolo[2,3-c]quinolin]-8′-yl)-2-(2-(isopropylamino)ethoxy)pyridin-3-yl)cyclopropanesulfonamide] | 1 to 100 | 1 to 100 |
| CC(C)NCCOc1ncc(-c2cc3c4c(cnc3cc2F)N(C)C(=O)C42CN(C(C)C)C2)cc1NS(=O)(=O)C(C)C [Example 485, N-(5-(7′-Fluoro-1-isopropyl-3′-methyl-2′-oxo-2′,3′-dihydrospiro[azetidine-3,1′-pyrrolo[2,3-c]quinolin]-8′-yl)-2-(2-(isopropylamino)ethoxy)pyridin-3-yl)propane-2-sulfonamide] | 1 to 100 | 1 to 100 |
| CC(C)N1CC2(C1)C(=O)N(C)c1cnc3cc(F)c(-c4cnc(N5CCC(N6CCCCC6)CC5)c(NS(C)(=O)=O)c4)cc3c12 [Example 486] | 1 to 100 | 1 to 100 |
| CC(C)NCCOc1ncc(-c2cc3c4c(cnc3cc2F)N(C)C(=O)C42CN(C3CCC3)C2)cc1NS(C)(=O)=O [Example 497, N-(5-(1-Cyclobutyl-7′-fluoro-3′-methyl-2′-oxo-2′,3′-dihydrospiro[azetidine-3,1′-pyrrolo[2,3-c]quinolin]-8′-yl)-2-(2-(isopropylamino)ethoxy)pyridin-3-yl)methanesulfonamide hydrochloride] | 1 to 100 | 1 to 100 |
| CC(C)NCCOc1ncc(-c2cc3c4c(cnc3cc2F)N(C)C(=O)C42CN(C3CCCC3)C2)cc1NS(C)(=O)=O [Example 498, N-(5-(1-Cyclopentyl-7′-fluoro-3′-methyl-2′-oxo-2′,3′-dihydrospiro[azetidine-3,1′-pyrrolo[2,3-c]quinolin]-8′-yl)-2-(2-(isopropylamino)ethoxy)pyridin-3-yl)methanesulfonamide] | 0.5 to 1 | 1 to 100 |
| CC(C)NCCOc1ncc(-c2cc3c4c(cnc3cc2F)N(C)C(=O)C42CN(c3ccccc3)C2)cc1NS(C)(=O)=O [Example 519, N-(5-(7′-Fluoro-3′-methyl-2′-oxo-1-phenyl-2′,3′-dihydrospiro[azetidine-3,1′-pyrrolo[2,3-c]quinolin]-8′-yl)-2-(2-(isopropylamino)ethoxy)pyridin-3-yl)methanesulfonamide hydrochloride] | < 0.5 | 1 to 100 |
| Cc1ncc(S(=O)(=O)Nc2cc(-c3cc4c5c(cnc4cc3F)N(C)C(=O)C53CN(c4ccccc4)C3)cnc2OCCNC(C)C)s1 [Example 520, N-(5-(7′-Fluoro-3′-methyl-2′-oxo-1-phenyl-2′,3′-dihydrospiro[azetidine-3,1′-pyrrolo[2,3-c]quinolin]-8′-yl)-2-(2-(isopropylamino)ethoxy)pyridin-3-yl)-2-methylthiazole-5-sulfonamide] | 1 to 100 | 1 to 100 |
| CCS(=O)(=O)Nc1cc(-c2cc3c4c(cnc3cc2F)N(C)C(=O)C42CN(c3ccccc3)C2)cnc1OCCNC(C)C [Example 522, N-(5-(7′-Fluoro-3′-methyl-2′-oxo-1-phenyl-2′,3′-dihydrospiro[azetidine-3,1′-pyrrolo[2,3-c]quinolin]-8′-yl)-2-(2-(isopropylamino)ethoxy)pyridin-3-yl)ethanesulfonamide hydrochloride] | 0.5 to 1 | 1 to 100 |
| CC(C)NCCOc1ncc(-c2cc3c4c(cnc3cc2F)N(C)C(=O)C42CN(c3ccc(Cl)cc3)C2)cc1NS(C)(=O)=O [Example 523, N-(5-(1-(4-Chlorophenyl)-7′-fluoro-3′-methyl-2′-oxo-2′,3′-dihydrospiro[azetidine-3,1′-pyrrolo[2,3-c]quinolin]-8′-yl)-2-(2-(isopropylamino)ethoxy)pyridin-3-yl)methanesulfonamide hydrochloride] | < 0.5 | 1 to 100 |
| CC(C)NCCOc1ncc(-c2cc3c4c(cnc3cc2F)N(C)C(=O)C42CN(c3cccc(Cl)c3)C2)cc1NS(C)(=O)=O [Example 524, N-(5-(1-(3-Chlorophenyl)-7′-fluoro-3′-methyl-2′-oxo-2′,3′-dihydrospiro[azetidine-3,1′-pyrrolo[2,3-c]quinolin]-8′-yl)-2-(2-(isopropylamino)ethoxy)pyridin-3-yl)methanesulfonamide] | 1 to 100 | 1 to 100 |
| CC(C)NCCOc1ncc(-c2cc3c4c(cnc3cc2F)N(C)C(=O)C42CN(c3ccccc3Cl)C2)cc1NS(C)(=O)=O [Example 525, N-(5-(1-(2-Chlorophenyl)-7′ fluoro-3′-methyl-2′-oxo-2′,3′-dihydrospiro[azetidine-3,1′-pyrrolo[2,3-c]quinolin]-8′-yl)-2-(2-(isopropylamino)ethoxy)pyridin-3-yl)methanesulfonamide] | 0.5 to 1 | 1 to 100 |
| Cc1ccc(N2CC3(C2)C(=O)N(C)c2cnc4cc(F)c(-c5cnc(OCCNC(C)C)c(NS(C)(=O)=O)c5)cc4c23)cc1 [Example 526, N-(5-(7′-Fluoro-3′-methyl-2′-oxo-1-(p-tolyl)-2′,3′-dihydrospiro[azetidine-3,1′-pyrrolo[2,3-c]quinolin]-8′-yl)-2-(2-(isopropylamino)ethoxy)pyridin-3-yl)methanesulfonamide hydrochloride] | < 0.5 | 1 to 100 |
| Cc1cccc(N2CC3(C2)C(=O)N(C)c2cnc4cc(F)c(-c5cnc(OCCNC(C)C)c(NS(C)(=O)=O)c5)cc4c23)c1 [Example 527, N-(5-(7′-Fluoro-3′-methyl-2′-oxo-1-(m-tolyl)-2′,3′-dihydrospiro[azetidine-3,1′-pyrrolo[2,3-c]quinolin]-8′-yl)-2-(2-(isopropylamino)ethoxy)pyridin-3-yl)methanesulfonamide] | 1 to 100 | 1 to 100 |
| Cc1ccccc1N1CC2(C1)C(=O)N(C)c1cnc3cc(F)c(-c4cnc(OCCNC(C)C)c(NS(C)(=O)=O)c4)cc3c12 [Example 528, N-(5-(7′-Fluoro-3′-methyl-2′-oxo-1-(o-tolyl)-2′,3′-dihydrospiro[azetidine-3,1′-pyrrolo[2,3-c]quinolin]-8′-yl)-2-(2-(isopropylamino)ethoxy)pyridin-3-yl)methanesulfonamide] | < 0.5 | 1 to 100 |
| CCc1ccc(N2CC3(C2)C(=O)N(C)c2cnc4cc(F)c(-c5cnc(OCCNC(C)C)c(NS(C)(=O)=O)c5)cc4c23)cc1 [Example 529, N-(5-(1-(4-Ethylphenyl)-7′-fluoro-3′-methyl-2′-oxo-2′,3′-dihydrospiro[azetidine-3,1′-pyrrolo[2,3-c]quinolin]-8′-yl)-2-(2-(isopropylamino)ethoxy)pyridin-3-yl)methanesulfonamide] | 1 to 100 | 1 to 100 |
| CC(C)NCCOc1ncc(-c2cc3c4c(cnc3cc2F)N(C)C(=O)C42CN(c3ccc(C(C)C)cc3)C2)cc1NS(C)(=O)=O [Example 530, N-(5-(7′-Fluoro-1-(4-isopropylphenyl)-3 methyl-2′-oxo-2′,3′-dihydrospiro [azetidine-3,1′-pyrrolo[2,3-c]quinolin]-8′-yl)-2-(2-(isopropylamino)ethoxy)pyridin-3-yl)methanesulfonamide] | 0.5 to 1 | 1 to 100 |
| COCc1ccc(N2CC3(C2)C(=O)N(C)c2cnc4cc(F)c(-c5cnc(OCCNC(C)C)c(NS(C)(=O)=O)c5)cc4c23)cc1 [Example 532, N-(5-(7′-Fluoro-1-(4-(methoxymethyl)phenyl)-3′-methyl-2′-oxo-2′,3′-dihydrospiro[azetidine-3,1′-pyrrolo[2,3-c]quinolin]-8′-yl)-2-(2-(isopropylamino)ethoxy)pyridin-3-yl)methanesulfonamide] | < 0.5 | 1 to 100 |
| COc1ccc(N2CC3(C2)C(=O)N(C)c2cnc4cc(F)c(-c5cnc(OCCNC(C)C)c(NS(C)(=O)=O)c5)cc4c23)cc1 [Example 533, N-(5-(7′-Fluoro-1-(4-methoxyphenyl)-3 methyl-2′-oxo-2′,3′-dihydrospiro [azetidine-3,1′-pyrrolo[2,3-c]quinolin]-8′-yl)-2-(2-(isopropylamino)ethoxy)pyridin-3-yl)methanesulfonamide] | 1 to 100 | 1 to 100 |
| COc1ccccc1N1CC2(C1)C(=O)N(C)c1cnc3cc(F)c(-c4cnc(OCCNC(C)C)c(NS(C)(=O)=O)c4)cc3c12 [Example 535, N-(5-(7′-Fluoro-1-(2-methoxyphenyl)-3′-methyl-2′-oxo-2′,3′-dihydrospiro [azetidine-3,1′-pyrrolo[2,3-c]quinolin]-8′-yl)-2-(2-(isopropylamino)ethoxy)pyridin-3-yl)methanesulfonamide] | 1 to 100 | 1 to 100 |
